Here are results for three substances from patent publication US7326679B2, “Anticancer peptide compositions” (TranXenoGen, Inc., priority 2003, dated 2008).

“Also recorded” adds a separate entry of the source. Square brackets hold non-standard residues; d marks the D form. Ends that are not written are not given here. pGlu = O=C1CC[C@@H](C(=O)O)N1

One test concerns CAM tissue cells. Nature of the test: Detection of cell death in resected CAM tissues (H-33342 and propidium iodide staining). It counts as in vivo, chick embryos. The following applies: for apoptosis / DNA fragmentation (H-33342 staining): 100 ng bFGF plus 200 ng peptide. How it is done:
Following staining, the tissues were washed three times in PBS and fixed in 4% formalin. The tissues were visualized under epifluorescence using a photo-digital imaging system. The number of live, apoptotic and necrotic cells were determined.

The subject of a further test is HeLa tumor. The test can be described thus: In vivo nude mice experiment, HeLa tumor growth. Also noted: species or system Nude nu/nu mice. The following applies: for inhibition of HeLa tumor growth during treatment phase (average tumor volume): n=3; for tumor growth profile post treatment: after fourth treatment until day 24, Pep A 500 and 750 μg, Pep B 500 μg; for response of individual tumors to treatment: tumor volumes on day 14, one day post last treatment; for vascularization and infiltration of isolated tumors (histopathology): compared to control mice. How it is done: The HeLa human cervical cancer cell line (ATCC, Manassas Va.; CCL-2) was grown according to direction in DMEM containing 10% fetal bovine serum. Cells in log phase were harvested from flasks using trypsin-EDTA (0.25% trypsin/1 mM Na-EDTA; Invitrogen), washed in PBS and resuspended in DMEM for counting and viability assessment using trypan blue exclusion. […] Cells were resuspended at 5×10^7 cells/mL in PBS for injection into the mice.
Nude nu/nu mice (4 to 5 week-old females) were acclimated for 1 week and injected with 5 million HeLa cells subcutaneously (SQ) in a total volume of 100 μL. After 3 days of tumor development, the mice were injected SQ with each peptide prepared in phosphate buffered saline (PBS) containing 0.05% sodium dodecyl sulfate (SDS) or PBS+0.05% SDS alone. All doses were 200 μL in volume, with additional treatments on days 6, 10 and 13 post-transplantation. Treatments were alternated between flanks of the mice. Tumor size and mouse weights were measured three times per week. The results represent the average of the 3 mice in each group. The experiment was terminated on day 24 and the tumors were excised for weight and histopathology.
HeLa cells (5×10^6 cells in 100 μL were administered subcutaneously (SQ). The cells were implanted in the left mid-flank region of 5 week old immunodeficient Nude nu/nu female mice (Charles River Labs, Wilmington, Mass.) and allowed to develop to palpable size (average diameter=[…]; average volume=24 mm^3). Mice were randomized and divided into experimental groups, with 3 mice per group. The mice were treated with SQ injections (200 μL) of various doses of peptide in phosphate buffered saline (PBS) containing a detergent, e.g., 0.05% sodium dodecyl sulphate (SDS). Control mice were injected with PBS containing 0.05% SDS alone. […] The treatments were administered on days 3, 6, 10 and 13 post-transplantation. Tumors were measured three times per week until the experiment was terminated on day 24 post-transplantation.

The test system of test [1] is bFGF induced angiogenesis. Nature of the test: Chicken chorioallantoic membrane (CAM) assay. The test is classed as in vivo, White Leghorn chick embryos. The following applies: for inhibition of bFGF-induced angiogenesis: day-10 chick embryos; for anti-angiogenic activity in CAM assay (overall): increasing doses, 100 ng or 200 ng bFGF, 48 hours at 37° C. From the text: The chicken chorioallantoic membrane (CAM) assay was completed to assess the effect of the peptides on basic fibroblast growth factor (bFGF) induced angiogenesis. Small windows were created through the blunt end of the shell directly over the air sac of 9-10 day old White Leghorn chick embryos with the use of a small crafts Dremel drill. The air sac was peeled-off, and filter disks saturated with basic fibroblast growth factor (bFGF) and the test peptide (or buffer control) were placed adjacent to each other on the CAM of the chick embryo. The shell windows were sealed with parafilm and eggs were incubated at 37° C. in a humidified egg incubator. After 48-72 hours, the CAM tissue directly below the filter disks was resected. Tissues were washed three times with PBS and analyzed using a stereomicroscope. The number of branching blood vessels infiltrating under the filter disks were determined and documented.

Test [2] relates to neo-vascularization of early chick embryo. The test can be described thus: Chick embryo neo-vascularization inhibition assay. It counts as in vivo, White Leghorn chick embryos. The settings on record: day-3.5 chick embryo, filter disks. The text has this: This assay was completed to determine the impact of Pep A and Pep B on neo-vascularization of early chick embryo. Small windows were created through the blunt end of the shell directly over the air sac of 3.5-day old White Leghorn chick embryos with the use of a small crafts Dremel drill. The air sac was peeled-off and filter disks with different concentrations of the test peptide or buffer control were placed over a section of the developing blood ring and overlapping connecting vessels of the chick embryo. The shell windows were sealed with parafilm and eggs were incubated at 37° C. in a humidified egg incubator. After 48-72 hours, the yolk membrane tissue directly below the filter disks was resected. Tissues were washed three times with PBS and analyzed for inhibition of neo-vascularization using a stereomicroscope with photo-digital attachment.

Test [3] relates to OSRC human osteogenic sarcoma tumor. Nature of the test: Osteosarcoma (OSRC) tumor model in nude mice. It counts as in vivo, Nude nu/nu mice. The following applies: SQ treatments on days 8, 11, 14 and 17; n=4. The procedure:
Tumor cell culture and harvesting was carried out as follows. Human osteogenic sarcoma cancer cells (OSRC cell line) was grown in DMEM containing additional non-essential amino acids and vitamins and 10% heat inactivated fetal bovine serum (Invitrogen™, Carlsbad, Calif.). Cells in log phase were harvested from flasks using trypsin-EDTA (0.05% trypsin/0.53 mM Na-EDTA; Invitrogen™), washed in PBS and resuspended in DMEM for counting and viability assessment using trypan blue exclusion. Cells were resuspended at 2.5×10^7 cells per ml in PBS for injection into the mice.
Nude nu/nu mice (4 to 5 week-old females, Charles River Labs, Wilmington, Mass.) were acclimated for 1 week before injection with 2.5 million OSRC cells subcutaneously (SQ) in a total volume of 100 μl. After 8 days of tumor development, the mice were injected SQ with each peptide or the protein pool prepared in phosphate buffered saline (PBS) containing 0.05% sodium dodecyl sulfate (SDS) or PBS+0.05% SDS alone (Control). All doses were 200 μl in volume, with additional treatments on days 11, 14 and 17 post-transplantation. Treatments were alternated between flanks of the mice. Tumor size (length, width and height) and mouse weights were measured three times per week. The results (FIGS. 6A-B) represent the average of the 4 mice in each group. […]

Where [4] appears, read: 500 μg per dose SQ on days 3, 6, 10 and 13.
[5] abbreviates: 200 ng peptide with 100 ng bFGF.

For “pyroELKCYTCKEPMTSASCRTIT ([pGlu]LKCYTCKEPMTSASCRTIT; cysteine pairing not given here) [Pep B]”, in the test with CAM tissue cells, the “apoptosis / DNA fragmentation (H-33342 staining)” value is given as “did not demonstrate the peri-vascular apoptosis; also recorded: minimal increase in apoptosis over the control”. Besides, the “condensation of the cell nuclei” value with CAM tissue cells (compared to controls) is “observable condensation of the cell nuclei”. The “inhibition of HeLa tumor growth during treatment phase (average tumor volume)” value in the test with HeLa tumor (setting [4]) is “tumor inhibition during the treatment phase”. Also, in the test with HeLa tumor, the “tumor growth profile post treatment” value is recorded as “escalation of tumor burden; also recorded: lost shortly after treatment stopped” and the “response of individual tumors to treatment” value is listed as “response of all animals”. The “vascularization and infiltration of isolated tumors (histopathology)” value with HeLa tumor (tumors isolated upon sacrifice) is “significantly less vascularization and infiltration”. The “inhibition of bFGF-induced angiogenesis” value in test [1] (setting [5]) is recorded as “inhibition of bFGF-induced angiogenesis”. For the same substance, the “anti-angiogenic activity in CAM assay (overall)” value in test [1] is recorded as “inhibited angiogenesis”. Moreover, the “suppression of neo-vascularization / branching vessel formation” value in test [2] is reported as “dose dependent suppression of branching vessel formation”.

Take ELKCYTCKEPMTSASCRTIT [Pep A]: the “apoptosis / DNA fragmentation (H-33342 staining)” value in the test with CAM tissue cells is on record as “Intensely staining apoptotic nuclei (white) of vascular cells; also recorded: significant increase in DNA fragmentation”; with CAM tissue cells (listed as PepA), “induces cell death by apoptosis”. Moreover, the “inhibition of HeLa tumor growth during treatment phase (average tumor volume)” value in the test with HeLa tumor (setting [4]) is “tumor inhibition during the treatment phase”; with HeLa tumor (750 μg per dose SQ on days 3, 6, 10 and 13), “tumor inhibition during the treatment phase”. The “tumor growth profile post treatment” value in the test with HeLa tumor was “slight increase in tumor burden; also recorded: only limited tumor growth for the duration of the experiment”. Further, the “response of individual tumors to treatment” value in the test on HeLa tumor was “response of all animals”. Besides, in the test on HeLa tumor (tumors isolated upon sacrifice), the “areas of cell death in isolated tumors (histopathology)” value is “larger areas of cell death; also recorded: noticeably larger”. For the same substance, in the test with HeLa tumor (tumors isolated upon sacrifice), the “vascularization and infiltration of isolated tumors (histopathology)” value was “significantly less vascularization and infiltration”. Moreover, the “suppression of bFGF-induced angiogenesis” value in test [1] (200 ng of bFGF) is reported as “showed suppression”. The “inhibition of bFGF-induced angiogenesis” value in test [1] (setting [5]) was “comparatively better inhibition of blood vessel infiltration”; in test [1] (Pep A with 100 ng bFGF), “inhibition of neo-vascularization and infiltration as well as degradation of pre-existing vessels”. Further, the “anti-angiogenic activity in CAM assay (overall)” value in test [1] is listed as “inhibited angiogenesis; also recorded: more potent anti-angiogenic agent”. The “suppression of neo-vascularization / branching vessel formation” value in test [2] is “dose dependent suppression of branching vessel formation”. The “osteosarcoma tumor volume (tumor burden)” value in test [3] is recorded as “reduction of osteosarcoma tumor volume”.

“6 mer: residues 5-10 of SEQ ID NO:1 (YTCKEP)”: the “osteosarcoma tumor volume (tumor burden)” value in test [3] was “reduction of osteosarcoma tumor volume”.
